In ChEMBL document CHEMBL1131254, “Molecular modeling studies of the DNA-topoisomerase I ternary cleavable complex with camptothecin” (J Med Chem, 1998) one finds inhibition data, which are given here for eleven molecules.

Assay type in all cases: functional
In experiment [1] the target is T1, DNA topoisomerase 1 (Homo sapiens) (UniProt P11387).
T1 sequence (whole entry): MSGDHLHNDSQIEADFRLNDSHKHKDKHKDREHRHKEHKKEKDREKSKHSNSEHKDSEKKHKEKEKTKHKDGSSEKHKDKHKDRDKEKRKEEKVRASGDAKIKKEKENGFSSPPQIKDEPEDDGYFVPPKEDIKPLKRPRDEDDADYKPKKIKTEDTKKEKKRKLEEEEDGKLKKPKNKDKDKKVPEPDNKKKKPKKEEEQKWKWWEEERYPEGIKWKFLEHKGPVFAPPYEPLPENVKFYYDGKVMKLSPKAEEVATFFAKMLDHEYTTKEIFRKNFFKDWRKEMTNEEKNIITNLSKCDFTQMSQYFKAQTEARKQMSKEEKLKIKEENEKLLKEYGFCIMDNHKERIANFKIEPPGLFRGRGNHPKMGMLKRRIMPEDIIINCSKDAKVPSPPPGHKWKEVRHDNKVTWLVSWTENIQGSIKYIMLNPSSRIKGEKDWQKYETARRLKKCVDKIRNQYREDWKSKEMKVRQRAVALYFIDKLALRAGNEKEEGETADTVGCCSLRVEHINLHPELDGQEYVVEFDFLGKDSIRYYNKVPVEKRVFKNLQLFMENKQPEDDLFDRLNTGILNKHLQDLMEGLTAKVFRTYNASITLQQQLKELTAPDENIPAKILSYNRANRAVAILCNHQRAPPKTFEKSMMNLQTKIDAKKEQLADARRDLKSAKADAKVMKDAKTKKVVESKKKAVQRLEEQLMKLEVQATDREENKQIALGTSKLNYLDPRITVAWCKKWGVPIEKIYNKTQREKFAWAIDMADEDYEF
Nature of the experiment: The compound was tested for top1-induced DNA cleavage activity; - indicates inactive.

Experiment [2] concerns the target T1, DNA topoisomerase 1 (Homo sapiens). Nature of the experiment: The compound was tested for top1-induced DNA cleavage activity; ++ indicates more potent than CPT.
Experiment [3] has the same target. Nature of the experiment: The compound was tested for top1-induced DNA cleavage activity; + indicates comparable to CPT.

The source made the active and inactive calls. The rule behind the calls is not given here.

As to `CC[C@@]1(O)C(=O)OCc2c1ccc1c2Cc2cc3ccccc3nc2-1`, in experiment [1], the inhibition result was “inactive”.

With `CC[C@@]1(O)C(=O)OCc2c1cc1n(c2=O)Cc2cc3cc(N)c(O)cc3nc2-1`, the inhibition result in experiment [2] is on record as “more potent than CPT”.

Take `CC[C@H]1C(=O)OCc2c1cc1n(c2=O)Cc2cc3ccccc3nc2-1`: the inhibition result in experiment [1] was “inactive”.

In the case of `CC[C@@]1(O)C(=O)OCc2c1cc1n(c2=O)Cc2cc3cc(OC)c(OC)cc3nc2-1` (stereo in doubt; form 2), the inhibition result in experiment [1] is “inactive”.

On to `CC[C@@]1(O)C(=O)OCc2c1cc1n(c2=O)Cc2c-1nc1cc3c(cc1c2CN1CCN(C)CC1)OCCO3`, for which the inhibition result in experiment [2] was “more potent than CPT”.

For `CC[C@@]1(O)C(=O)OCc2c1cc1n(c2=O)Cc2cc3cc(OC)c(OC)cc3nc2-1` (stereo in doubt; form 1), in experiment [1], the inhibition entry is “inactive”.

Take `CC[C@@]1(O)C(=O)OCc2c1cc1n(c2=O)Cc2c-1nc1cc3c(cc1c2CN1CCN(C)CC1)OCO3`: the inhibition entry in experiment [2] is given as “more potent than CPT”.

For the molecule `CC[C@@]1(O)C(=O)OCc2c1cc1n(c2=O)Cc2cc3cc(OC)c(OC)cc3nc2-1` (stereo in doubt; form 3), the inhibition entry in experiment [1] was “inactive”.

Take `CC[C@]1(O)C(=O)OCc2c1cc1n(c2=O)Cc2cc3ccccc3nc2-1`: the inhibition result in experiment [1] was “inactive”.

Turning to `CC[C@@]1(O)C(=O)OCc2cc3c(cc21)-c1nc2ccccc2cc1C3`, the inhibition entry in experiment [1] was “inactive”.

With `CC[C@@]1(O)C(=O)OCc2c1cc1n(c2=O)Cc2c-1nc1cnc(CN)cc1c2C`, the inhibition result in experiment [3] is given as “comparable to CPT”.
